Reference: patent US4260629A, “Treating pain with acetaminophen and 1,4-dimethyl-5-p-chlorobenzoyl-pyrrole-2-acetic acid” (E. I. Du Pont de Nemours and Company, priority 1979, dated 1981)

Legend:
[1] = system: phenyl-p-benzoquinone induced writhing; assay: mouse antiphenylquinone writhing test (prevention of phenyl-p-benzoquinone induced writhing; oral analgesic activity); format: in vivo, mouse (male CF1); conditions: 10 min, preliminary experiment, 95% confidence limits 0.80-1.69 (sodium zomepirac), 166-281 (acetaminophen)
[2] = system: phenyl-p-benzoquinone induced writhing; assay: as above; format: in vivo, mouse (male CF1)
Method: Male CF1 mice obtained from Charles River Breeding Laboratories, fasted for 16-22 hours, and weighing 18-22 g at the time of testing are used throughout. All mice are dosed orally with acetaminophen and/or zomepirac (calculated as the sodium salt) dissolved completely in distilled water containing as vehicle 2% by volume of Tween 80®, a pharmacological dispersant manufactured by Fisher Scientific Company and containing 100% polysorbate 80. A dosing volume of 20 ml/kg is used. All doses are coded and the test is performed under a code not known to the observer.
A standard procedure for detecting and comparing the analgesic activity of different classes of analgesia drugs for which there is a good correlation with human efficacy is the prevention of phenyl-p-benzoquinone induced writhing in mice (H. Blumberg et al.; Proc. Soc. Exp. Biol. Med. 118, 763-766, 1965).
Mice, intubated with various doses of sodium zomepirac, acetaminophen, combined doses of sodium zomepirac and acetaminophen, or vehicle, are injected intraperitoneally with a challenge dose of phenyl-p-benzoquinone.The phenyl-p-benzoquinone is prepared as a 0.1 mg/ml solution in 5% by volume of ethanol in water; the writhing dose is 1.25 mg/kg injected at the rate of 0.25 ml/20 g. For scoring purposes a "writhe" is indicated by whole body stretching or contraction of the abdomen: mice are observed 10 minutes for the presence or absence of writhing beginning 5 minutes after receiving the phenyl-p-benzoquinone dose. Each mouse is used only once, then discarded.
In order to study the interaction between zomepirac and acetaminophen, precise dosage ratios of sodium zomepirac and acetaminophen are selected. Four to five coded doses of each selected combination are studied for analgesic effectiveness at 10 minutes using an experimental design which permits complete randomization of the separate dosage forms tested. Altogether 25 separate dosage forms are used and each form is represented in each experimental session. The experiments are continued by running experimental sessions with an equal number of mice being tested for each dosage group until the total number, N, of mice tested per group is 20.
In the drawing, the diagonal line joining the ED50 values of the two drugs given separately represents simple additivity of drug effects. The dashed lines on each side of the diagonal line give the 95% confidence limits for this line of additivity. […] The 3 diagonal lines radiating from the origin represent the dose ratios of sodium zomepirac to acetaminophen used in mice receiving the combined drug dosages.

Row | % MICE BLOCKED ([2]; sodium zomepirac 0.29 + acetaminophen 0 mg/kg) [%] | % MICE BLOCKED ([2]; sodium zomepirac 0.58 + acetaminophen 0 mg/kg) [%] | % MICE BLOCKED ([2]; sodium zomepirac 1.16 + acetaminophen 0 mg/kg) [%] | % MICE BLOCKED ([2]; sodium zomepirac 2.32 + acetaminophen 0 mg/kg) [%] | % MICE BLOCKED ([2]; sodium zomepirac 4.64 + acetaminophen 0 mg/kg) [%] | % MICE BLOCKED ([2]; sodium zomepirac 0 + acetaminophen 54 mg/kg) [%] | % MICE BLOCKED ([2]; sodium zomepirac 0 + acetaminophen 108 mg/kg) [%] | % MICE BLOCKED ([2]; sodium zomepirac 0 + acetaminophen 216 mg/kg) [%] | % MICE BLOCKED ([2]; sodium zomepirac 0 + acetaminophen 432 mg/kg) [%] | Structure (SMILES) | ED50 [1] [mg/kg] | ED50 at 10 Min. (95% Confidence limits), Sodium Zomepirac (alone or as component of the combination) ([2]; 10 min, N = 20 mice/dose, 95% limits on following lines: alone 1.09-2.12, 1:62.1 0.367-0.649, 1:186 0.204-0.365, 1:559 0.114-0.195) [mg/kg] | ED50 at 10 Min. (95% Confidence limits), Acetaminophen (alone or as component of the combination) ([2]; 10 min, N = 20 mice/dose, 95% limits on following lines: alone 162-309, 1:62.1 22.6-40.6, 1:186 37.7-68.5, 1:559 62.6-111) [mg/kg]
1 | 5 | 20 | 35 | 60 | 95 |  |  |  |  | Cc1cc(CC(=O)O)n(C)c1C(=O)c1ccc(Cl)cc1 [Sodium Zomepirac] | 1.16 | 1.52 | 
2 |  |  |  |  |  | 10 | 30 | 45 | 75 | CC(=O)Nc1ccc(O)cc1 [Acetaminophen, N-(4-hydroxyphenyl)acetamide] | 216 |  | 224
